Source: article PMC10623575, “Discovery of Potent and Selective CB2 Agonists Utilizing a Function-Based Computational Screening Protocol” (ACS Chemical Neuroscience, 2023)
Read-outs that look alike come from different tables or passages of the source.

Assays:
CB1 receptor [1] = target: T1, CB1 receptor (Homo sapiens, UniProt P21554); test: Calcium mobilization assay, antagonist mode (CP55940 challenge), CHO expressing CB1; type: cell-based
Experimental: (§1) Chinese hamster ovarian (CHO) cells collected from the American Type Culture Collection were maintained in Ham’s F-12K (Kaighn’s) supplemented with 100 mg/L streptomycin, 100 mg/L penicillin, and 10% fetal bovine serum (FBS) in a humidified atmosphere of 5% CO2 at 37 °C. CHO cells were co-transfected with plasmids encoding CB1 or CB2 and Gα16 by electroporation. To establish stable cell lines, transfected cells were seeded on 10 cm dishes with 40 μg/mL blasticidin and 1 mg/mL G418 in culture medium after 24 h. The selection medium was substituted once every 3 days until colonies formed. A solitary colony was obtained, propagated, and assessed using a calcium mobilization assay to verify the function and expression of the transfected genes.
(§2) 3 × 10^4 cells/well were employed to seed cells onto 96-well plates, which were subsequently incubated throughout the night. Cells were then treated with 2 μM Fluo-4 AM in HBSS (0.3 mM Na2HPO4, 5.4 mM KCl, 4.2 mM NaHCO3, 0.4 mM KH2PO4, 0.5 mM MgCl2, 1.3 mM CaCl2, 137 mM NaCl, 0.6 mM MgSO4, 250 μM sulfinpyrazone, and 5.6 mM D-glucose, pH 7.4) for 45 min at 37 °C. […] Meanwhile, the change of intracellular calcium was measured at an excitation wavelength of 525 and 485 nm. For antagonist mode, the extra dye was washed out and 50 μL of HBSS with test compounds, DMSO (negative control), or AM630 (positive control) was introduced. […] The change of intracellular calcium was captured at an excitation wavelength of 525 and 485 nm. To be noticed, each experiment has been independently replicated three times, with three repetitions and eight gradients each time.
(§3) The collected data were processed with GraphPad Prism software (GraphPad). […] Means ± SEM were computed utilizing this software. The analyses were evaluated by the Student t test. When the p value is smaller than 0.05, the result is statistically significant.

CB2 receptor [2] = target: T2, CB2 receptor (Homo sapiens, UniProt P34972); test: Calcium mobilization assay, antagonist mode (CP55940 challenge), CHO expressing CB2; type: cell-based; conditions: for SI, selectivity index for the CB2, SI = IC50(CB1)/IC50(CB2): antagonist mode
T2 construct: expressed in transfected cells
T2 sequence (P34972 whole entry): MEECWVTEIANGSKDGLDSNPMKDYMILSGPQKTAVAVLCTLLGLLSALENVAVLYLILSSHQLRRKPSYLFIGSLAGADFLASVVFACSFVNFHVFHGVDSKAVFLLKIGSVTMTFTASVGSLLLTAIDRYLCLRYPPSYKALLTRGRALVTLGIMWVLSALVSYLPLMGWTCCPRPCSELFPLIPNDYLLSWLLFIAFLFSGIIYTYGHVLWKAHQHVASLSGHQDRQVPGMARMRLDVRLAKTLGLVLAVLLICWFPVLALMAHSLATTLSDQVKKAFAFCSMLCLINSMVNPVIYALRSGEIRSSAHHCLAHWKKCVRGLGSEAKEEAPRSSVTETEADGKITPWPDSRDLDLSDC
Experimental: as §1, §2, §3

CB2 receptor [3] = target: T2, CB2 receptor; conditions: representative ligands for active CB2 (Table S7); ref SI refs 3, 6, 7, 10, 11; read-out: Experimental Ki, Active CB2; cited from earlier work
CB1 receptor [4] = target: T1, CB1 receptor; test: Calcium mobilization assay, agonist mode, CHO expressing CB1 and Gα16; type: cell-based; conditions: agonist activity, CHO expressing CB1, mean ± SEM; read-out: CB1 EC50
Experimental: as §1
(§4) 3 × 10^4 cells/well were employed to seed cells onto 96-well plates, which were subsequently incubated throughout the night. […] For antagonist mode, the extra dye was washed out and 50 μL of HBSS with test compounds, DMSO (negative control), or AM630 (positive control) was introduced. […] To be noticed, each experiment has been independently replicated three times, with three repetitions and eight gradients each time.
as §3

CB2 receptor [5] = target: T2, CB2 receptor; test: Calcium mobilization assay, agonist mode, CHO expressing CB2 and Gα16; type: cell-based
Experimental: as §1, §4, §3

[6] = antagonist activity, CHO expressing CB1, read-out: CB1 IC50
[7] = antagonist activity, CHO expressing CB2, three independent assays, mean ± SEM, read-out: CB2 IC50
[8] = single independent experiment, replicate 1, read-out: CB2 antagonist(μM) replicate 1
[9] = single independent experiment, replicate 2, read-out: CB2 antagonist(μM) replicate 2
[10] = single independent experiment, replicate 3, read-out: CB2 antagonist(μM) replicate3
[11] = CB2 IC50, antagonist activity, CHO expressing CB2, three independent assays, mean ± SEM
[12] = CB2 antagonist(μM) replicate 1, single independent experiment, replicate 1
[13] = CB2 antagonist(μM) replicate 2, single independent experiment, replicate 2
[14] = CB2 antagonist(μM) replicate3, single independent experiment, replicate 3
[15] = agonist activity, CHO expressing CB2, three independent assays, mean ± SEM, read-out: CB2 EC50

T1 sequence (P21554 whole entry): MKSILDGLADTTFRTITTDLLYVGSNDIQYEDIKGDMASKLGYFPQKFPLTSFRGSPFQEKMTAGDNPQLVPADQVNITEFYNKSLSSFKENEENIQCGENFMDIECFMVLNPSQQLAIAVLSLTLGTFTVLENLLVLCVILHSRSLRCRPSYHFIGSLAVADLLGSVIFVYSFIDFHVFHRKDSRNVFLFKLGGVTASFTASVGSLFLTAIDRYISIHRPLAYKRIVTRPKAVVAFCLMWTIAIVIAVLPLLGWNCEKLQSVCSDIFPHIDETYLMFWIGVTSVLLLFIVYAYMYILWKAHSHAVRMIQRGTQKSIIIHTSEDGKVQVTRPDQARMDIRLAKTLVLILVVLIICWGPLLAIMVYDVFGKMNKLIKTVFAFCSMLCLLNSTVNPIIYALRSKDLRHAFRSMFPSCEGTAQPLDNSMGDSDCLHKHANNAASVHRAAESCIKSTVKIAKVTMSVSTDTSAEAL

With CCCS(=O)(=O)Oc1cc(C=C2SC(=O)N(C(C)C)C2=O)ccc1OC [Compound 39, 5-((3-Isopropyl-2,4-dioxothiazolidin-5-ylidene)methyl)-2-methoxyphenyl Propane-1-sulfonate] the IC50 (CB1 receptor [1]; [6]) was greater than 10000 nM, the IC50 (CB2 receptor [2]; [7]) was 0.33 ± 0.09 µM and the “SI, selectivity index for the CB2, SI = IC50(CB1)/IC50(CB2)” value (CB2 receptor [2]) was 23. It also gave an IC50 (CB2 receptor [2]; [8]) of 0.445 µM, an IC50 (CB2 receptor [2]; [9]) of 0.115 µM and an IC50 (CB2 receptor [2]; [10]) of 0.44 µM.
For COc1ccc(C(=O)c2c(C)n(CCN3CCOCC3)c3cc(I)ccc23)cc1 [AM630, reference compound], the IC50 (CB2 receptor [2]; [11]) was 0.34 ± 0.1 µM, the IC50 (CB2 receptor [2]; [12]) was 0.153 µM and the IC50 (CB2 receptor [2]; [13]) was 0.319 µM. The IC50 (CB2 receptor [2]; [14]) was 0.55 µM.
In the case of CCCCCn1cc(C(=O)C2C(C)(C)C2(C)C)c2ccccc21 [UR-144], the Ki (CB2 receptor [3]) is given as 1.8 nM.
With COc1ccc(C=C2SC(=O)N(C(C)C)C2=O)cc1OC(=O)CCCCl [Compound 38, 5-((3-Isopropyl-2,4-dioxothiazolidin-5-ylidene)methyl)-2-methoxyphenyl 4-Chlorobutanoate] the IC50 (CB1 receptor [1]; [6]) was greater than 10000 nM, the IC50 (CB2 receptor [2]; [7]) was 0.4 ± 0.16 µM and the “SI, selectivity index for the CB2, SI = IC50(CB1)/IC50(CB2)” value (CB2 receptor [2]) was greater than 25. The IC50 (CB2 receptor [2]; [8]) was 0.715 µM, the IC50 (CB2 receptor [2]; [9]) was 0.256 µM and the IC50 (CB2 receptor [2]; [10]) was 0.224 µM.
With CCCS(=O)(=O)Oc1cc(C=C2SC(=O)N(CC(C)C)C2=O)ccc1OC [Compound 40, 5-((3-Isobutyl-2,4-dioxothiazolidin-5-ylidene)methyl)-2-methoxyphenyl Propane-1-sulfonate] the IC50 (CB1 receptor [1]) was greater than 10000 nM, the IC50 (CB2 receptor [2]; [11]) was 2.99 ± 1.42 µM and the IC50 (CB2 receptor [2]; [12]) was 2.64 µM. For the same compound, the IC50 (CB2 receptor [2]; [13]) was 5.6 µM, the IC50 (CB2 receptor [2]; [14]) was 0.728 µM and the “SI, selectivity index for the CB2, SI = IC50(CB1)/IC50(CB2)” value (CB2 receptor [2]) was greater than 3.
In the case of CC(C)N1C(=O)SC(=Cc2ccccc2OC(=O)N2CCOCC2)C1=O [Compound 17, 2-((3-Isopropyl-2,4-dioxothiazolidin-5-ylidene)methyl)phenyl Morpholine-4-carboxylate], the EC50 (CB1 receptor [4]) is reported as greater than 10000 nM, the EC50 (CB2 receptor [5]; [15]) is reported as 0.66 ± 0.34 µM and the “SI, selectivity index for the CB2, SI = EC50(CB1)/EC50(CB2)” value (CB2 receptor [5]; agonist mode) is reported as greater than 15. The EC50 (CB2 receptor [5]; single independent experiment, replicate 1, read-out: CB2 agonist(μM) replicate 1) was 0.166 µM, the EC50 (CB2 receptor [5]; single independent experiment, replicate 2, read-out: CB2 agonist(μM) replicate 2) was 1.31 µM and the EC50 (CB2 receptor [5]; single independent experiment, replicate 3, read-out: CB2 agonist(μM) replicate3) was 0.489 µM.
In the case of CCCCCCCC(=O)Oc1ccccc1C=C1SC(=O)N(CC(C)C)C1=O [Compound 14, 2-((3-Isobutyl-2,4-dioxothiazolidin-5-ylidene)methyl) Phenyl Octanoate], the EC50 (CB1 receptor [4]) is reported as greater than 10000 nM and the EC50 (CB2 receptor [5]; [15]) is reported as greater than 10 µM.
